# Source: ChEMBL document CHEMBL4680113, “Tigliane Diterpenoids as a New Type of Antiadipogenic Agents Inhibit GRα-Dexras1 Axis in Adipocytes” (J Med Chem, 2019)
# Activity calls are given as the source filed them. The rule behind the calls is not given here.
# Columns and labels:
# [1] = tested on: 3T3-L1; test: Lipid lowering activity in mouse 3T3-L1 cells assessed as reduction in adipogenic cocktail-induced triglyceride levels at 10 uM incubated for 6 days by GPO-POD assay; type: functional; conditions: for inhibition: time 6.0 day; for inhibition at 10 µM: 3T3-L1, 144 h, time 6 day
# [2] = tested on: 3T3-L1; test: Lipid lowering activity in mouse 3T3-L1 cells assessed as reduction in adipogenic cocktail-induced triglyceride levels at 1 to 10 uM by Oil-Red O staining; type: functional, cell-based; conditions: dose 1-10 µM
# [3] = tested on: 3T3-L1; test: Toxicity in mouse 3T3-L1 cells assessed as reduction in cell viability at 10 uM incubated for 6 days by LDH release assay; type: cell-based; conditions: 3t3-l1, 144 h, time 6 day
# [4] = tested on: 3T3-L1; test: Inhibition of adipogenic cocktail-induced GR-alpha nuclear translocation in mouse 3T3-L1 cells at 10 uM after 8 hrs by Western blot analysis; type: cell-based; conditions: filed as antagonist
# [5] = tested on: 3T3-L1; test: Lipid lowering activity in mouse 3T3-L1 cells assessed as reduction in adipogenic cocktail induced triglyceride levels at 1 uM incubated for 6 days by GPO-POD assay; type: functional, cell-based; conditions: time 6.0 day
# [6] = tested on: 3T3-L1; test: Inhibition of adipogenic cocktail-induced PPARgamma mRNA expression in mouse 3T3-L1 cells at 1 uM by RT-qPCR analysis; type: functional, cell-based
# [7] = tested on: 3T3-L1; test: Inhibition of GR-alpha in mouse 3T3-L1 cells assessed as reduction in adipogenic cocktail-induced Dexras1 mRNA expression at 10 uM incubated for 4 hrs by RT-qPCR analysis; type: cell-based; conditions: filed as antagonist
# [8] = tested on: 3T3-L1; test: Lipid increasing activity in mouse 3T3-L1 cells assessed as increase in adipogenic cocktail induced triglyceride levels at 1 uM incubated for 6 days by GPO-POD assay; type: functional, cell-based; conditions: time 6.0 day
# [9] = tested on: 3T3-L1; test: Activation of adipogenic cocktail-induced PPARgamma mRNA expression in mouse 3T3-L1 cells at 1 uM by RT-qPCR analysis; type: functional, cell-based
# [10] = tested on: 3T3-L1; test: Activation of GR-alpha in mouse 3T3-L1 cells assessed as increase in adipogenic cocktail-induced Dexras1 mRNA expression at 10 uM incubated for 4 hrs by RT-qPCR analysis; type: cell-based; conditions: filed as agonist
Structure (SMILES),inhibition [1],inhibition [2],Activity [3],inhibition at 10 µM [1] [%],other results
CC(=O)O[C@@H]1[C@@H]2[C@@H](OC(C)=O)[C@@]34CO[C@@](C)([C@H](OC(C)=O)[C@@]2(OC(C)=O)C[C@@H]1C)[C@@H]3[C@@H]1[C@@H](C[C@]1(C)OC(C)=O)[C@@H](OC(=O)C(C)C)C4=O,inactive,–,–,–,–
CCC(=O)O[C@@H]1[C@@H]2[C@@H](OC(C)=O)[C@@]34CO[C@@](C)([C@H](OC(C)=O)[C@@]2(OC(C)=O)C[C@@H]1C)[C@@H]3[C@@H]1[C@@H](C[C@]1(C)OC(C)=O)[C@@H](O)C4=O,Active,Active,Non-Toxic,–,–
CCCC(=O)O[C@@H]1[C@@H]2[C@@H](OC(C)=O)[C@@]34CO[C@@](C)([C@H](OC(C)=O)[C@@]2(OC(C)=O)C[C@@H]1C)[C@@H]3[C@@H]1[C@@H](C[C@]1(C)OC(C)=O)[C@@H](OC(=O)c1ccccc1)C4=O,Active,–,–,–,–
CC(=O)O[C@@H]1[C@]2(C)OC[C@]3(C(=O)C=C[C@H](C(C)(C)OC(C)=O)[C@@H]23)[C@H](OC(C)=O)[C@H]2[C@@H](OC(=O)c3cccnc3)[C@@H](C)C[C@@]21OC(C)=O,inactive,–,–,–,–
CC(=O)O[C@@H]1[C@H]2[C@@H](OC(C)=O)[C@](C)(OC(C)=O)C[C@]2(OC(C)=O)[C@H](OC(=O)c2ccccc2)[C@]2(C)OC[C@]13[C@H](OC(C)=O)C=C[C@H](C(C)(C)OC(C)=O)[C@@H]23,–,Active,Non-Toxic,> 60,–
CC#C[C@]1(O)CC[C@H]2[C@@H]3CCC4=CC(=O)CCC4=C3[C@@H](c3ccc(N(C)C)cc3)C[C@@]21C,–,–,–,–,inhibition [4]: Active; inhibition [5]: Active; inhibition [6]: Active; inhibition [7]: Active
CCC(=O)O[C@@H]1[C@@H]2[C@@H](OC(C)=O)[C@@]34CO[C@@](C)([C@H](OC(C)=O)[C@@]2(OC(C)=O)C[C@@H]1C)[C@@H]3[C@@H]1[C@@H](C[C@]1(C)OC(C)=O)[C@@H](OC(=O)c1ccccc1)C4=O,Active,Active,Non-Toxic,–,–
CCC(=O)O[C@@H]1[C@@H]2[C@@H](OC(C)=O)[C@@]34CO[C@@](C)([C@H](OC(C)=O)[C@@]2(O)C[C@@H]1C)[C@@H]3[C@@H]1[C@@H](C[C@]1(C)OC(C)=O)[C@@H](OC(=O)c1ccccc1)C4=O,inactive,–,–,–,–
CCC(=O)O[C@@H]1[C@@H]2[C@@H](OC(C)=O)[C@@]34CO[C@@](C)([C@@H](OC(=O)C(C)CC)[C@@]2(OC(C)=O)C[C@@]1(C)OC(C)=O)[C@@H]3[C@@H](C(C)(C)OC(C)=O)C=C[C@H]4OC(C)=O (some centres not stated),–,Active,Non-Toxic,> 60,–
CC(=O)O[C@@H]1[C@H]2[C@@H](OC(C)=O)[C@](C)(O)C[C@]2(OC(C)=O)[C@H](OC(=O)c2ccccc2)[C@]2(C)OC[C@]13[C@H](OC(C)=O)C=C[C@H](C(C)(C)OC(C)=O)[C@@H]23,–,Active,Non-Toxic,> 60,–
CC(=O)O[C@@H]1[C@H]2[C@@H](OC(=O)c3cccnc3)[C@@H](C)C[C@]2(OC(C)=O)[C@@H](OC(C)=O)[C@]2(C)OC[C@]13C(=O)[C@H](OC(=O)C(C)C)[C@@H]1C[C@](C)(OC(C)=O)[C@@H]1[C@@H]23,inactive,–,–,–,–
CC(=O)O[C@@H]1[C@@H]2[C@@H](OC(C)=O)[C@@]34CO[C@@](C)([C@H](OC(C)=O)[C@@]2(OC(C)=O)C[C@@H]1C)[C@@H]3[C@@H]1[C@@H](C[C@]1(C)OC(C)=O)[C@H](O)C4=O,–,Active,Non-Toxic,> 60,–
CCC(=O)O[C@@H]1[C@@H]2[C@@H](OC(C)=O)[C@@]34CO[C@@](C)([C@H](OC(C)=O)[C@@]2(OC(C)=O)C[C@@H]1C)[C@@H]3[C@@H]1[C@@H](C[C@]1(C)OC(C)=O)[C@@H](OC(=O)C(C)C)C4=O,–,Active,Non-Toxic,> 60,–
CC1=C[C@H]2[C@@H]3C(C)(C)[C@]3(OC(=O)C(C)C)[C@H](OC(=O)c3ccccc3)[C@@H](C)[C@]2(O)[C@@H]2C=C(C)C(=O)C2=C1,–,Active,Non-Toxic,> 50,–
CC(=O)O[C@@H]1[C@@H]2[C@@H](OC(C)=O)[C@@]34CO[C@@](C)([C@H](OC(=O)c5ccccc5)[C@@]2(O)C[C@@H]1C)[C@@H]3[C@@H]1[C@@H](C[C@]1(C)OC(C)=O)[C@@H](OC(=O)c1ccccc1)C4=O,inactive,–,–,–,–
CC(=O)O[C@@H]1[C@H]2[C@@H](OC(=O)c3cccnc3)[C@@H](C)C[C@]2(OC(C)=O)[C@@H](OC(C)=O)[C@]2(C)OC[C@]13C(=O)[C@@H](O)[C@@H]1C[C@](C)(OC(C)=O)[C@@H]1[C@@H]23,inactive,–,–,–,–
CC(=O)O[C@@H]1[C@H]2[C@@H](OC(=O)c3cccnc3)[C@@H](C)C[C@]2(OC(C)=O)[C@@H](OC(C)=O)[C@]2(C)OC[C@]13C(=O)[C@H](OC(=O)c1ccccc1)[C@@H]1C[C@](C)(OC(C)=O)[C@@H]1[C@@H]23,inactive,–,–,–,–
CC(=O)O[C@@H]1[C@@H]2[C@@H](OC(C)=O)[C@@]34CO[C@@](C)([C@H](OC(C)=O)[C@@]2(OC(C)=O)C[C@@H]1C)[C@@H]3[C@@H]1[C@@H](C[C@]1(C)OC(C)=O)[C@@H](OC(=O)c1ccccc1)C4=O,Active,–,–,–,–
CC(=O)O[C@@H]1[C@H]2[C@@H](OC(=O)c3cccnc3)[C@@H](C)C[C@]2(OC(C)=O)[C@@H](OC(C)=O)[C@]2(C)OC[C@]13C(=O)[C@H](O)[C@@H]1C[C@](C)(OC(C)=O)[C@@H]1[C@@H]23,inactive,Active,Non-Toxic,–,–
CC1=C[C@@H]2[C@H](C1=O)[C@H](O)C(C)=C[C@H]1[C@@H]3C(C)(C)[C@]3(OC(=O)C(C)C)[C@H](OC(=O)c3ccccc3)[C@@H](C)[C@]21O [EUPHODENDRIANE A],–,Active,Non-Toxic,> 50,–
C[C@H]1C[C@@H]2[C@H]([C@@H](O)C[C@@]3(C)[C@H]2CC[C@]3(O)C(=O)CO)[C@@]2(C)C=CC(=O)C=C12,–,–,–,–,Activity [8]: Active; Activity [9]: Active; Activity [10]: Active
CCC(=O)O[C@@H]1[C@@H]2[C@@H](OC(=O)c3ccccc3)[C@@]3(COC(C)=O)[C@@H]([C@@H]4[C@H](C[C@H]3OC(C)=O)C4(C)C)[C@](C)(OC(C)=O)C(=O)[C@@]2(O)C[C@@H]1C,–,Active,Non-Toxic,> 60,–
CCC(=O)O[C@@H]1[C@@H]2[C@@H](OC(C)=O)[C@@]34CO[C@@](C)([C@H](OC(=O)c5ccccc5)[C@@]2(OC(C)=O)C[C@@H]1C)[C@@H]3[C@@H](C(C)(C)OC(C)=O)C=CC4=O,Active,–,–,–,–
CC(=O)OC[C@]12[C@H](OC(=O)c3ccccc3)[C@H]3[C@@H](OC(=O)c4cccnc4)[C@@H](C)C[C@]3(O)C(=O)[C@@](C)(OC(C)=O)[C@@H]1[C@@H]1[C@H](C[C@H]2OC(C)=O)C1(C)C,–,Active,Non-Toxic,> 60,–
CCCC(=O)O[C@@H]1[C@@H]2[C@@H](OC(C)=O)[C@@]34CO[C@@](C)([C@H](OC(C)=O)[C@@]2(OC(C)=O)C[C@@H]1C)[C@@H]3[C@@H](C(C)(C)OC(C)=O)C=C[C@H]4OC(C)=O,–,Active,Non-Toxic,> 60,–
CCC(=O)O[C@@H]1[C@@H]2[C@@H](OC(C)=O)[C@@]34CO[C@@](C)([C@H](OC(C)=O)[C@@]2(OC(C)=O)C[C@@H]1C)[C@@H]3[C@@H]1[C@@H](C[C@]1(C)OC(C)=O)[C@@H](OC(=O)C(C)CC)C4=O (some centres not stated),inactive,–,–,–,–
